The source of these data is patent US10662210B2, “Compositions and methods comprising osmium for the treatment of cancers” (Massachusetts Institute of Technology, priority 2014, dated 2020).

The test system of series [1] is ct-DNA. Briefly: DNA binding kinetics (osmium bound to precipitated ct-DNA). To be noted: 25 μM complex, 250 μM ct-DNA, 37° C. The protocol:
The osmium compounds were hypothesized to induce cell death through DNA interactions. Therefore, the interaction of 2 or 4 with pUC19 plasmid DNA was investigated using gel electrophoresis; the results of which are as shown in FIG. 6. As the concentration of 2 increased, there was a clear increase in the amount of nicked circular, and a concomitant decrease in the amount of supercoiled, plasmid DNA. At concentrations >250 μM, the bands in the gel smeared and then disappeared. […] The DNA binding kinetics of 2 and 4 were studied by measuring the amount of osmium bound to precipitated ct-DNA; the results of which are as shown in FIG. 7. The half-life of this reaction for 2 was 2 hours.
The amount of osmium covalently bound to ct-DNA was determined by modification of a previously reported protocol. A solution of ct-DNA (0.25 mM, nucleotide) was incubated with 2 or 4 at a bp:metal complex ratio of 5:1 at 37° C. in 1 mM sodium phosphate buffer, pH 7.4, containing 3 mM NaCl. At certain time points, a 250 μL aliquot was removed and the DNA was precipitated by adding 10 μL of NaCl (5 M) and 1.0 mL of EtOH (stored at 4° C.). The solution was centrifuged to remove DNA, and the concentration of unbound osmium was determined by GF-AAS.

Series [2] in a line: Stability of 2 by UV-vis spectroscopy and variable temperature 1H NMR. It counts as physicochemical. The source says: The bidentate ligands used were 2,2′-bipyridine, 1,10-phenanthroline, 3,4,7,8-tetramethyl-1,10-phenanthroline, and 4,7-diphenyl-1,10-phenanthroline. The complexes were synthesized by reacting (Bu4N)[OsNCl4] with the appropriate ligand in acetone or dichloromethane. Characterization of 1-4 and the crystal structure of 4 are reported in Example 4. Prior to carrying out cellular studies, the stability of 2, taken as a representative member of the family, in phosphate buffered saline (PBS) and DMEM cell culture media was established by UV-vis spectroscopy. […] The water-octanol coefficient (log P) for each compound was also determined.

Series [3] has as its system HMLER^tax CSC-enriched. Briefly: Cytotoxicity against CSC-enriched breast cancer cells. It counts as cell-based. The source says:
(§1) Cancer relapse is strongly linked to the existence of CSCs. […] Conventional chemotherapy and radiotherapy are often ineffective against CSCs. Although current therapies effectively reduce tumor mass by destroying the bulk of cancer cells, they are unable to remove CSCs, which persist and generate new tumors, often of a far more aggressive nature. Therefore, in order to improve clinical outcomes, treatments must have the ability to kill the entirety of cancer cells, including CSCs. The osmium compound, described in Formula (I), wherein X^1, X^2, and X^3 were chloride ligands and the bidentate ligand was a 1,10-phenanthroline ligand, was able to kill breast cancer cells (HMLER) enriched with CSCs, 2.3-fold better than CSC-depleted breast cancer cells. […] The selectivity of the osmium compound can be seen in Table 2 as well as FIGS. 17A-B and 18.
(§2) The colorimetric MTT assay was used to determine the toxicity of the osmium complexes and cisplatin. Cells (2×10^3) were seeded in each well of a 96-well plate. After incubating the cells overnight, various concentrations of test compound (0.3-100 μM) were added and incubated for 72 h (total volume 200 μL). The test compounds were prepared as 10 mM solutions in DMSO and diluted using media. The final concentration of DMSO in each well was 0.5% and this amount was present in the untreated control as well. Cisplatin was prepared as a 5 mM solution in PBS and diluted further using media. After 72 h, the medium was removed, 200 μL of a 0.4 mg/mL solution of MTT in DMEM or RPMI was added, and the plate was incubated for an additional 1-2 h. The DMEM/MTT or RPMI/MTT mixture was aspirated and 200 μL of DMSO was added to dissolve the resulting purple formazan crystals. The absorbance of the solution wells was read at 550 nm. Absorbance values were normalized to DMSO-containing control wells and plotted as concentration of test compound versus % cell viability. IC50 values were interpolated from the resulting dose dependent curves. The reported IC50 values are the average from at least three independent experiments, each of which consisted of six replicates per concentration level.

Series [4] deals with HMLER CSC-depleted. Put plainly: Cytotoxicity against CSC-depleted breast cancer cells. Format: cell-based.
Description: as §1, §2

Series [5] has as its system ER of A2780 cells. Put plainly: Fluorescence microscopy of ER size (ER tracker Blue). Format: cell-based, human. To be noted: 10 μM. The protocol:
This finding led to the investigation of the possibility that 4 may induce endoplasmic reticulum (ER) stress. Co-administration of 4 and salubrinal (10 μM), a known ER stress inhibitor, reduced the cytotoxicity of 4 in A2780 cells. […] To further validate the ER as the main target for 4, the expression of proteins related to the unfolded protein response (UPR) was monitored. […] ER membrane expansion is widely associated with ER stress. With this fact in mind the ER size of A2780 cells upon incubation with 4 were examined using fluorescence microscopy. Relative to untreated controls (FIG. 3B), cells exposed to 4 (10 μM) for 4 h had 25.1% larger ER coverage (FIG. 3C). […]
A2780 cells (1×10^4) were incubated with and without 4 (10 μM) for 6 h. […] Fluorescence imaging experiments were performed using a Zeiss Axiovert 200M inverted epifluorscence microscope with a Hamamatsu EM-CCD digital camera C9100 and a MS200 XY Piezo Z stage (Applied Scientific Instruments, Inc.). […] The exposure time for acquisition of fluorescence images was kept constant for each series of images at each channel. The ER and whole cell size was quantified using ImageJ (version 1.45, NIH). The size of the whole cell was measured by tracing the outline of the cell membrane in the DIC view. The size of the ER was measured by tracing the outline of emission observed from ER tracker Blue in the DAPI (blue) channel. […]

pIC50: −log10 of the molar value.

As to `[N]#[Os]1([Cl])([Cl])([Cl])[N]2C=CC=c3ccc4c(c32)[N]1C=CC=4` [Complex 2, OsN(1,10-phenanthroline)Cl3], the “half-life of ct-DNA binding reaction” value in series [1] is 2 h. Moreover, in series [2] (UV-vis spectroscopy), the “stability in phosphate buffered saline (PBS) and DMEM cell culture media” value is recorded as “established”. For the same compound, the thermal stability entry in series [2] (variable temperature 1H NMR spectroscopy) is “demonstrated”. Moreover, the pIC50 in series [3] was 5.31; in series [4], 4.95. In addition, the “HMLER^tax selectivity” value in series [3] (CSC-enriched vs CSC-depleted) is recorded as 2.31.
For the compound `[N]#[Os]1([Cl])([Cl])([Cl])[N]2C=CC(c3ccccc3)=c3ccc4c(c32)[N]1C=CC=4c1ccccc1` [Complex 4, OsN(4,7-diphenyl-1,10-phenanthroline)Cl3], the “larger ER coverage relative to untreated controls” value in series [5] (4 h) is listed as 25.1%. For the same compound, the “ER size relative to the whole cell” value in series [5] (treated samples) is recorded as “about 55%”.
